Laboratory results reported in US20240116951A1, “HETEROCYCLIC COMPOUNDS AND USES THEREOF” (Kumquat Biosciences Inc., priority 2022, published 2024).
Read-outs that look alike come from different tables or passages of the source.

Assays:
Format in all cases: binding
[1] = molecular target: T1, KRAS G12D (Homo sapiens, UniProt P01116, G12D); assay: HTRF assay of K-Ras G12D interaction with SOS1 (PPI-HTRF)
T1 construct: made in house; host or cells: E. coli, e.g. BL21 (DE3)
Procedure, shortened: (§1)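 Read-out: HTRF ratio 665/620 nm (ex 337 nm) after ~10 min or longer. Donor anti-GST-Eu(K) on GST-K-Ras and acceptor anti-6His-XL665 on His-hSOS1, in HEPES pH 7.4 buffer with DTT, BSA and Igepal. Duplicate dilution series from 10 μM down to 0.01 μM gave IC50 values.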

[2] = molecular target: T2, KRAS WT (Homo sapiens, UniProt P01116); assay: HTRF assay of wildtype K-Ras interaction with SOS1 (PPI-HTRF)
T2 construct: made in house; host or cells: E. coli, e.g. BL21 (DE3)
T2 sequence (P01116 1-188 isoform P01116-2): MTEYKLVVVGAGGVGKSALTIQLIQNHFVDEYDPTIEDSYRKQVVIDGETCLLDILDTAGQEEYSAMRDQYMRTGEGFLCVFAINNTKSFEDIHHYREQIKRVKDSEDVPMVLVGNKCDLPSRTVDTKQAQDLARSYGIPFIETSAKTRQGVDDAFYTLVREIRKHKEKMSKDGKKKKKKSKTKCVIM
Procedure, shortened: as §1

[3] = molecular target: T3, KRAS G12S (Homo sapiens, UniProt P01116, G12S); assay: HTRF assay of K-Ras G12S interaction with SOS1 (PPI-HTRF)
T3 construct: made in house; host or cells: E. coli, e.g. BL21 (DE3)
T3 sequence (P01116 1-188 isoform P01116-2 G12S): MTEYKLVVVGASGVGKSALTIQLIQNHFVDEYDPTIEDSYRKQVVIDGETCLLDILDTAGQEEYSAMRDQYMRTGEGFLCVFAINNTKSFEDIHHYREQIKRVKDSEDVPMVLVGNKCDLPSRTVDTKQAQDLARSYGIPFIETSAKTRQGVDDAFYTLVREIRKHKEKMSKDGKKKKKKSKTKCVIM
Procedure, shortened: as §1

[4] = HTRF, 5 nM KRAS G12D, read-out: PPI-HTRF-5 nM KRAS G12D
[5] = HTRF, 5 nM KRAS WT, read-out: PPI-HTRF-5 nM KRAS WT
[6] = 5 nM KRAS G12S, read-out: PPI-HTRF-5 nM KRAS G12S

T1 sequence (P01116 1-188 isoform P01116-2 G12D): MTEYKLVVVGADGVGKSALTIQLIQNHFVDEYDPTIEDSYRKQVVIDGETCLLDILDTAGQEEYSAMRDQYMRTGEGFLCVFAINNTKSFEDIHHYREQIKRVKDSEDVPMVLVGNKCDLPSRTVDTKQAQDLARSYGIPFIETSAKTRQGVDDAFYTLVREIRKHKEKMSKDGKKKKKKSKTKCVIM

| Structure (SMILES) | IC50 [1, 4] | IC50 [2, 5] | IC50 [3, 6] | IC50 [1] | IC50 [2] | IC50 ([3]; PPI-HTRF-5 nM KRAS G12S) |
| --- | --- | --- | --- | --- | --- | --- |
| N#Cc1c(N)sc2c(F)ccc(-c3c(Cl)cc4c(N5CCC6(CCN6C(=O)OC(C(F)(F)F)C(F)(F)F)C5)nc(OC[C@@]56CCCN5C[C@H](F)C6)nc4c3F)c12 (stereo partly drawn) [Compound 237, 1,1,1,3,3,3-hexafluoropropan-2-yl 6-(7-(2-amino-3-cyano-7-fluorobenzo[b]thiophen-4-yl)-6-chloro-8-fluoro-2-(((2R,7aS)-2-fluorotetrahydro-1H-pyrrolizin-7a(5H)-yl)methoxy)quinazolin-4-yl)-1,6-diazaspiro[3.4]octane-1-carboxylate] | > 5 µM | < 5 µM | < 5 µM |  |  |  |
| C[C@H](Oc1nc(N2CCCC3(CCN3C(=O)c3ccnn3C)C2)c2cc(Cl)c(-c3ccc(F)c4sc(N)c(C#N)c34)c(F)c2n1)[C@@H]1CCCN1C (stereo partly drawn) [Compound 282, 2-amino-4-(6-chloro-8-fluoro-4-(1-(1-methyl-1H-pyrazole-5-carbonyl)-1,6-diazaspiro[3.5]nonan-6-yl)-2-((S)-1-((S)-1-methylpyrrolidin-2-yl)ethoxy)quinazolin-7-yl)-7-fluorobenzo[b]thiophene-3-carbonitrile] | < 5 µM | < 5 µM | < 5 µM |  |  |  |
| N#Cc1c(N)sc2c(F)ccc(-c3c(Cl)cc4c(N5CCC6(CCN6C(=O)n6cnc(C(F)F)n6)C5)nc(OC[C@@]56CCCN5C[C@H](F)C6)nc4c3F)c12 (stereo partly drawn) [Compound 215, 2-amino-4-(6-chloro-4-(1-(3-(difluoromethyl)-1H-1,2,4-triazole-1-carbonyl)-1,6-diazaspiro[3.4]octan-6-yl)-8-fluoro-2-(((2R,7aS)-2-fluorotetrahydro-1H-pyrrolizin-7a(5H)-yl)methoxy)quinazolin-7-yl)-7-fluorobenzo[b]thiophene-3-carbonitrile] | < 5 µM | < 5 µM | < 5 µM |  |  |  |
| N#Cc1c(N)sc2c(F)ccc(-c3c(Cl)cc4c(N5CCC6(CCN6C(=O)n6nc(C7CC7)nc6Cl)C5)nc(OC[C@@]56CCCN5C[C@H](F)C6)nc4c3F)c12 (stereo partly drawn) [Compound 288, 2-amino-4-(6-chloro-4-(1-(5-chloro-3-cyclopropyl-1H-1,2,4-triazole-1-carbonyl)-1,6-diazaspiro[3.4]octan-6-yl)-8-fluoro-2-(((2R,7aS)-2-fluorotetrahydro-1H-pyrrolizin-7a(5H)-yl)methoxy)quinazolin-7-yl)-7-fluorobenzo[b]thiophene-3-carbonitrile] | < 5 µM | < 5 µM | < 5 µM |  |  |  |
| N#Cc1c(N)sc2c(F)ccc(-c3c(Cl)cc4c(N5CCC6(CCN6C(=O)n6ccnc6C#N)C5)nc(OC[C@@]56CCCN5C[C@H](F)C6)nc4c3F)c12 (stereo partly drawn) [Compound 287, 1-(6-(7-(2-amino-3-cyano-7-fluorobenzo[b]thiophen-4-yl)-6-chloro-8-fluoro-2-(((2R,7aS)-2-fluorotetrahydro-1H-pyrrolizin-7a(5H)-yl)methoxy)quinazolin-4-yl)-1,6-diazaspiro[3.4]octane-1-carbonyl)-1H-imidazole-2-carbonitrile] | < 5 µM | < 5 µM | < 5 µM |  |  |  |
| Cc1ncn(C(=O)N2CCOCC23CCN(c2nc(OC[C@@]45CCCN4C[C@H](F)C5)nc4c(F)c(-c5ccc(F)c6sc(N)c(C#N)c56)c(Cl)cc24)C3)n1 (stereo partly drawn) [Compound 214, 2-amino-4-(6-chloro-8-fluoro-2-(((2R,7aS)-2-fluorotetrahydro-1H-pyrrolizin-7a(5H)-yl)methoxy)-4-(6-(3-methyl-1H-1,2,4-triazole-1-carbonyl)-9-oxa-2,6-diazaspiro[4.5]decan-2-yl)quinazolin-7-yl)-7-fluorobenzo[b]thiophene-3-carbonitrile] | < 5 µM | < 5 µM | < 5 µM |  |  |  |
| N#Cc1c(N)sc2c(F)ccc(-c3c(Cl)cc4c(N5CCC6(CCN6C(=O)Oc6ccc([N+](=O)[O-])cc6)C5)nc(OC[C@@]56CCCN5C[C@H](F)C6)nc4c3F)c12 (stereo partly drawn) [Compound 298, 4-nitrophenyl 6-(7-(2-amino-3-cyano-7-fluorobenzo[b]thiophen-4-yl)-6-chloro-8-fluoro-2-(((2R,7aS)-2-fluorotetrahydro-1H-pyrrolizin-7a(5H)-yl)methoxy)quinazolin-4-yl)-1,6-diazaspiro[3.4]octane-1-carboxylate] |  |  |  | < 5 µM | < 5 µM | < 5 µM |

More lines, main results first:

| IC50 [1, 4] | IC50 [2, 5] | IC50 [3, 6] | Structure (SMILES) | IC50 [1] | IC50 [2] | IC50 ([3]; PPI-HTRF-5 nM KRAS G12S) |
| --- | --- | --- | --- | --- | --- | --- |
| < 5 µM | < 5 µM | < 5 µM | Cc1cn(C(=O)N2CCC23CCN(c2nc(OC[C@@]45CCCN4C[C@H](F)C5)nc4c(F)c(-c5ccc(F)c6sc(N)c(C#N)c56)c(Cl)cc24)C3)nn1 (stereo partly drawn) [Compound 336, 2-amino-4-(6-chloro-8-fluoro-2-(((2R,7aS)-2-fluorotetrahydro-1H-pyrrolizin-7a(5H)-yl)methoxy)-4-(1-(4-methyl-1H-1,2,3-triazole-1-carbonyl)-1,6-diazaspiro[3.4]octan-6-yl)quinazolin-7-yl)-7-fluorobenzo[b]thiophene-3-carbonitrile] |  |  |  |
| < 5 µM | < 5 µM | < 5 µM | N#Cc1c(N)sc2c(F)ccc(-c3c(Cl)cc4c(N5CCC6(COCCN6C(=O)C6CC6(F)F)C5)nc(OC[C@@]56CCCN5C[C@H](F)C6)nc4c3F)c12 (stereo partly drawn) [Compound 258, 2-amino-4-(6-chloro-4-(6-(2,2-difluorocyclopropane-1-carbonyl)-9-oxa-2,6-diazaspiro[4.5]decan-2-yl)-8-fluoro-2-(((2R,7aS)-2-fluorotetrahydro-1H-pyrrolizin-7a(5H)-yl)methoxy)quinazolin-7-yl)-7-fluorobenzo[b]thiophene-3-carbonitrile] |  |  |  |
| < 5 µM | < 5 µM | < 5 µM | C[C@H]1CN(C(=O)n2cnc(Br)n2)[C@]12CCN(c1nc(OC[C@@]34CCCN3C[C@H](F)C4)nc3c(F)c(-c4ccc(F)c5sc(N)c(C#N)c45)c(Cl)cc13)C2 [Compound 224, 2-amino-4-(4-((3S,4R)-1-(3-bromo-1H-1,2,4-triazole-1-carbonyl)-3-methyl-1,6-diazaspiro[3.4]octan-6-yl)-6-chloro-8-fluoro-2-(((2R,7aS)-2-fluorotetrahydro-1H-pyrrolizin-7a(5H)-yl)methoxy)quinazolin-7-yl)-7-fluorobenzo[b]thiophene-3-carbonitrile] |  |  |  |
| < 5 µM | < 5 µM | < 5 µM | Cc1nc(C)n(C(=O)N2CC[C@@]23CCN(c2nc(OC[C@@]45CCCN4C[C@H](F)C5)nc4c(F)c(-c5ccc(F)c6sc(N)c(C#N)c56)c(Cl)cc24)C3)n1 [Compound 307, 2-amino-4-(6-chloro-4-((R)-1-(3,5-dimethyl-1H-1,2,4-triazole-1-carbonyl)-1,6-diazaspiro[3.4]octan-6-yl)-8-fluoro-2-(((2R,7aS)-2-fluorotetrahydro-1H-pyrrolizin-7a(5H)-yl)methoxy)quinazolin-7-yl)-7-fluorobenzo[b]thiophene-3-carbonitrile] |  |  |  |
| < 5 µM | < 5 µM | < 5 µM | N#Cc1c(N)sc2c(F)ccc(-c3c(Cl)cc4c(N5CCC6(CCN6C(=O)n6cnc(C7CC7)n6)C5)nc(OC[C@@]56CCCN5C[C@H](F)C6)nc4c3F)c12 (stereo partly drawn) [Compound 308, 2-amino-4-(6-chloro-4-(1-(3-cyclopropyl-1H-1,2,4-triazole-1-carbonyl)-1,6-diazaspiro[3.4]octan-6-yl)-8-fluoro-2-(((2R,7aS)-2-fluorotetrahydro-1H-pyrrolizin-7a(5H)-yl)methoxy)quinazolin-7-yl)-7-fluorobenzo[b]thiophene-3-carbonitrile] |  |  |  |
